Assay results: patent publication US8710043B2, “TRPM8 antagonists and their use in treatments” (Amgen Inc., priority 2011, dated 2014)
Structures can show the parent of a compound that is named as a salt.

Target: T1, human TRPM8 (Homo sapiens, UniProt Q7Z2W7)
T1 construct: expressed in transfected cells; host or cells: Chinese hamster ovary (CHO) cells, T-REx tetracycline-inducible system, co-transfected with aequorin
Assay: Luminescence readout assay for measuring intracellular calcium, icilin activation
Format: cell-based
Details: CHO cells expressing human TRPM8, aequorin luminescence, 1 μM icilin activation; read-out: hTRPM8 IC50
Description: Luminescence Readout Assay for Measuring Intracellular Calcium.
A stable Chinese hamster ovary cell line expressing human TRPM8 was generated using tetracycline inducible T-REx™ expression system from Invitrogen, Inc. (Carlsbad, Calif.). […] Twenty four hours before the assay, cells were seeded in 96-well plates and TRPM8 expression was induced with 0.5 μg/mL tetracycline. […] Potential antagonists were added 2.5 min prior to the addition of agonist, 1 μM icilin, 100 μM L-menthol, or 1 min prior to the addition of cold buffer (<10° C.). The luminescence was measured by a CCD camera based FLASH-luminometer built by Amgen, Inc. A cooling device attached to FLASH luminometer was used for cold activation.

T1 sequence (Q7Z2W7 whole entry): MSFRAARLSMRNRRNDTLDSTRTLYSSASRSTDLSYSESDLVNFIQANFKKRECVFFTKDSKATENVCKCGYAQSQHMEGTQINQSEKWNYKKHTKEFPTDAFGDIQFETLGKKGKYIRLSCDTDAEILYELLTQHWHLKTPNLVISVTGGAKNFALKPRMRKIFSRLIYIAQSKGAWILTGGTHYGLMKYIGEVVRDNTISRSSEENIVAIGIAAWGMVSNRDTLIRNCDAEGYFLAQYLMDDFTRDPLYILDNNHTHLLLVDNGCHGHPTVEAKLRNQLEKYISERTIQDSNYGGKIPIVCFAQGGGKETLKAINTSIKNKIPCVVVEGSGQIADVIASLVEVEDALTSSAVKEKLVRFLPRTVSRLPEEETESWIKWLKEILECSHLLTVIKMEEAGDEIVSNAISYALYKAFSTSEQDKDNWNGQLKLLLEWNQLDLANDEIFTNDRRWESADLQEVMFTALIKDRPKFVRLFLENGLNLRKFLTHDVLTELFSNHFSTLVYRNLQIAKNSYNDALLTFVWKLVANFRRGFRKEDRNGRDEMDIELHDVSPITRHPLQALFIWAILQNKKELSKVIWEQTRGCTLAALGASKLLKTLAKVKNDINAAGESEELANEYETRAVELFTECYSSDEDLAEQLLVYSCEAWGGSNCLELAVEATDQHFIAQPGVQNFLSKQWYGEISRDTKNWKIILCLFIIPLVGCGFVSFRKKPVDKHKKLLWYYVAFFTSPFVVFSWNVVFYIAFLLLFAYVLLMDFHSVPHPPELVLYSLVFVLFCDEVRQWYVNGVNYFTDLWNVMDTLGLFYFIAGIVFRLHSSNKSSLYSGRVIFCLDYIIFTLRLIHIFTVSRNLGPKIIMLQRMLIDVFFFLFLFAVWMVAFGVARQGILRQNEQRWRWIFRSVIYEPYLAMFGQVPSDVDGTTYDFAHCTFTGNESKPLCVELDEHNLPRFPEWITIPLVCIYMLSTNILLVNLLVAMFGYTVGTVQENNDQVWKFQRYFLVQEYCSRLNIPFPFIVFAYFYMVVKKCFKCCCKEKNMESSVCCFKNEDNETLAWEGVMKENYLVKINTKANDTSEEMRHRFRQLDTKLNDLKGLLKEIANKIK

Structure (SMILES) | IC50 [nM]
Cn1cnc2cc(C(=O)N[C@@H](c3ccc(C(F)(F)F)cc3)c3ncccc3F)ccc21 [Example 394, (S)-N-((3-fluoropyridin-2-yl)(4-(trifluoromethyl)phenyl)methyl)-1-methyl-1H-benzo[d]imidazole-5-carboxamide] | 35.4
O=C(N[C@@H](c1ccc(C(F)(F)F)cc1)c1ncccc1F)c1ccc(=O)n(Cc2ccccc2)c1 [Example 371, (S)-1-benzyl-N-((3-fluoropyridin-2-yl)(4-(trifluoromethyl)phenyl)methyl)-6-oxo-1,6-dihydropyridine-3-carboxamide] | 190
O=C(N[C@@H](c1ccc(F)cc1)c1ncccc1C(F)(F)F)c1ccccc1 [Example 126, (S)-N-((4-fluorophenyl)(3-(trifluoromethyl)pyridin-2-yl)methyl)benzamide] | 194
O=C(N[C@@H](C#Cc1ccccc1)c1ncccc1C(F)(F)F)c1ccc2cccnc2c1 [Example 261, (S)-N-(3-phenyl-1-(3-(trifluoromethyl)pyridin-2-yl)prop-2-yn-1-yl)quinoline-7-carboxamide] | 375
COc1cccc(C(=O)N[C@@H](c2ccc(C(F)(F)F)cc2)c2ncccc2C(F)(F)F)n1 [Example 33, (S)-6-methoxy-N-((4-(trifluoromethyl)phenyl)(3-(trifluoromethyl)pyridin-2-yl)methyl)picolinamide] | 125
CC(C)(C)OC(=O)N1CC(CC(=O)N[C@@H](c2ccc(C(F)(F)F)cc2)c2ncccc2C(F)(F)F)C1 [Example 229, (S)-tert-butyl 3-(2-oxo-2-(((4-(trifluoromethyl)phenyl)(3-(trifluoromethyl)pyridin-2-yl)methyl)amino)ethyl)azetidine-1-carboxylate] | 354
O=C(N[C@@H](c1ccc(C(F)(F)F)cc1)c1ncccc1C(F)(F)F)c1ccc2c(c1)C(=O)CC2 [Example 245, (S)-3-oxo-N-((4-(trifluoromethyl)phenyl)(3-(trifluoromethyl)pyridin-2-yl)methyl)-2,3-dihydro-1H-indene-5-carboxamide] | 77.4
O=C(N[C@@H](c1ccc(OC(F)(F)F)c(F)c1)c1ncccc1F)c1cc2[nH]c(=O)oc2cn1 [Example 437, (S)—N-((3-Fluoro-4-(trifluoromethoxy)phenyl)(3-fluoropyridin-2-yl)methyl)-2-oxo-1,2-dihydrooxazolo[5,4-c]pyridine-6-carboxamide] | 225
CC(C)Cc1cc(C(=O)N[C@@H](c2ccc(C(F)(F)F)c(F)c2)c2ncccc2C(F)(F)F)c2ccccc2n1 [Example 156, (S)-N-((3-fluoro-4-(trifluoromethyl)phenyl)(3-(trifluoromethyl)pyridin-2-yl)methyl)-2-isobutylquinoline-4-carboxamide bis (2,2,2-trifluoroacetate)] | 301
Cc1cccnc1[C@@H](NC(=O)c1ccc(-c2nc(=O)o[nH]2)cc1)c1ccc(C(F)(F)F)cc1 [Example 323, (S)-N-((3-methylpyridin-2-yl)(4-(trifluoromethyl)phenyl)methyl)-4-(5-oxo-2,5-dihydro-1,2,4-oxadiazol-3-yl)benzamide] | 36.7
O=C(N[C@@H](c1ccc(C(F)(F)F)cc1)c1ncccc1C(F)(F)F)[C@@H]1CCCO1 [Example 234, (S)-N-((S)-(4-(trifluoromethyl)phenyl)(3-(trifluoromethyl)pyridin-2-yl)methyl)THF-2-carboxamide] | 169
O=C(NC(c1ccc(Cl)c(Cl)c1)c1ccccn1)c1ccc2cnccc2c1 (centres unmarked) [Example 247, N-((3,4-dichlorophenyl)(pyridin-2-yl)methyl)isoquinoline-6-carboxamide bis-hydrochloride] | 42.7
O=C(Cc1cccnc1)N[C@@H](c1ccc(C(F)(F)F)cc1)c1ncccc1C(F)(F)F [Example 238, (S)-2-(pyridin-3-yl)-N-((4-(trifluoromethyl)phenyl)(3-(trifluoromethyl)pyridin-2-yl)methyl)acetamide] | 547
O=C1COc2c(cccc2C(=O)N[C@@H](c2ccc(C(F)(F)F)cc2)c2ncccc2F)N1 [Example 77] | 53
COc1cccc2cc([C@H](NC(=O)c3ccc4cccnc4c3)c3ncccc3C(F)(F)F)cnc12 [Example 23, (S)-N-((8-methoxyquinolin-3-yl)(3-(trifluoromethyl)pyridin-2-yl)methyl)quinoline-7-carboxamide] | 1060
O=C(N[C@@H](c1ccc(C(F)(F)F)cc1)c1ncccc1C(F)(F)F)c1cncnc1O [Example 61, (S)-4-hydroxy-N-((4-(trifluoromethyl)phenyl)(3-(trifluoromethyl)pyridin-2-yl)methyl)pyrimidine-5-carboxamide] | 312
CC#Cc1cccnc1[C@@H](NC(=O)c1ccc2cccnc2c1)c1ccc(C(F)(F)F)cc1 [Example 97, (S)-N-((3-(prop-1-yn-1-yl)pyridin-2-yl)(4-(trifluoromethyl)phenyl)methyl)quinoline-7-carboxamide 2,2,2-trifluoroacetate] | 119
O=C(N[C@@H](c1ccc(C(F)(F)F)cc1)c1ccccc1Br)c1ccc2ncccc2c1 [Example 256, (S)-N-((2-bromophenyl)(4-(trifluoromethyl)phenyl)methyl)quinoline-6-carboxamide 2,2,2-trifluoro acetate, 2,2,2-trifluoroacetate] | 302
CCCN1C(=O)c2ccc(C(=O)N[C@@H](c3ccc(C(F)(F)F)cc3)c3ncccc3C(F)(F)F)cc2C1=O [Example 269, (S)-1,3-Dioxo-2-propyl-N-((4-(trifluoromethyl)phenyl)(3-(trifluoromethyl)pyridin-2-yl)methyl)isoindoline-5-carboxamide] | 136
Cc1ncc(C(=O)N[C@@H](c2ccc(C(F)(F)F)cc2)c2ncccc2C(F)(F)F)c(N)n1 [Example 137, (S)-4-amino-2-methyl-N-((4-(trifluoromethyl)phenyl)(3-(trifluoromethyl)pyridin-2-yl)methyl)pyrimidine-5-carboxamide] | 94.9

Compounds with a lower IC50, results first:

IC50 [nM] | Structure (SMILES)
30.3 | O=C(N[C@@H](c1ccc(C(F)(F)F)cc1)c1ncccc1F)c1cccs1 [Example 375, (S)-N-((3-fluoropyridin-2-yl)(4-(trifluoromethyl)phenyl)methyl)thiophene-2-carboxamide]
29.6 | O=C(N[C@@H](c1ccc(C(F)(F)F)cc1)c1ncccc1F)c1ccc(=O)n(C2COC2)c1 [Example 305, (S)-N-((3-fluoropyridin-2-yl)(4-(trifluoromethyl)phenyl)methyl)-1-(oxetan-3-yl)-6-oxo-1,6-dihydropyridine-3-carboxamide]
27.7 | O=C(N[C@@H](c1ccc(OC(F)(F)F)c(F)c1)c1ncccc1F)c1c[nH]c(=O)cn1 [Example 353, (S)-N-((3-fluoro-4-(trifluoromethoxy)phenyl)(3-fluoropyridin-2-yl)methyl)-5-oxo-4,5-dihydropyrazine-2-carboxamide]
26.2 | O=C(N[C@@H](c1ccc(C(F)(F)F)cc1)c1ncccc1C(F)(F)F)c1ccncc1 [Example 178, (S)-N-((4-(trifluoromethyl)phenyl)(3-(trifluoromethyl)pyridin-2-yl)methyl)isonicotinamide]
25.2 | O=C(N[C@@H](c1ccc(C(F)(F)F)cc1)c1ncccc1C(F)(F)F)c1ccn2nnnc2c1 [Example 312, (S)-N-((4-(trifluoromethyl)phenyl)(3-(trifluoromethyl)pyridin-2-yl)methyl)tetrazolo[1,5-a]pyridine-7-carboxamide]
22.1 | O=C(O)c1ccc(C(=O)N[C@@H](c2ccc(C(F)(F)F)cc2)c2ncccc2F)nc1 [Example 280, (S)-6-(((3-Fluoropyridin-2-yl)(4-(trifluoromethyl)phenyl)-methyl)carbamoyl)nicotinic Acid]
17.7 | Cc1cccnc1[C@@H](NC(=O)c1ccc(=O)[nH]c1)c1ccc(C(F)(F)F)cc1 [Example 82, (S)-N-((3-methylpyridin-2-yl)(4-(trifluoromethyl)phenyl)methyl)-6-oxo-1,6-dihydropyridine-3-carboxamide 2,2,2-trifluoroacetate]
14.5 | Cn1cc(C(=O)N[C@@H](c2ccc(OC(F)(F)F)c(F)c2)c2ccccn2)ccc1=O [Example 294, (S)-N-((3-fluoro-4-(trifluoromethoxy)phenyl)(pyridin-2-yl)methyl)-1-methyl-6-oxo-1,6-dihydropyridine-3-carboxamide]
14 | O=C(N[C@@H](c1ccc(OC(F)(F)F)c(F)c1)c1ncccc1F)c1cnc2[nH]c(=O)oc2c1 [Example 427, (S)—N-((3-Fluoro-4-(trifluoromethoxy)phenyl)(3-fluoropyridin-2-yl)methyl)-2-oxo-2,3-dihydrooxazolo[4,5-b]pyridine-6-carboxamide]
7.6 | O=C(N[C@@H](c1ccc(C(F)(F)F)cc1)c1ncccc1F)c1ccc2[nH]cnc2c1 [Example 392, (S)-N-((3-fluoropyridin-2-yl)(4-(trifluoromethyl)phenyl)methyl)-1H-benzo[d]imidazole-5-carboxamide]
6.9 | O=C(N[C@@H](c1ccc(OC(F)(F)F)c(F)c1)c1ncccc1Br)c1ccc(=O)[nH]c1 [Example 382, (S)-N-((3-bromopyridin-2-yl)(3-fluoro-4-(trifluoromethoxy)phenyl)methyl)-6-oxo-1,6-dihydropyridine-3-carboxamide]
6.1 | O=C(N[C@@H](c1ccc(OC(F)(F)F)c(F)c1)c1ccccn1)c1ccc2[nH]cnc2c1 [Example 393, (S)-N-((3-fluoro-4-(trifluoromethoxy)phenyl)(pyridin-2-yl)methyl)-1H-benzo[d]imidazole-5-carboxamide]
